Experimental findings from US10774051B2, “6-membered heterocyclic derivatives and pharmaceutical composition comprising the same” (Shionogi & Co., Ltd., priority 2015, dated 2020) are described below.

In the first assay the target is human P2X7 receptor (Homo sapiens, UniProt Q99572, R270H/Y155H). Description: Evaluation of human P2X7 receptor inhibitory activity (Yo-Pro uptake, BzATP stimulation, FLIPR TETRA). As to conditions: 1321N1 cells stably expressing human P2X7 receptor; BzATP stimulation, Yo-Pro uptake; read-out: IC50 (antagonistic activity for the human P2X7 receptor). The assay is classed as cell-based. In a few lines:
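1321N1 cells stably expressing human P2X7 (T606C/G952A SNP variant), in HBSS buffer pH 7.4-7.5 with Yo-Pro, stimulated with BzATP; compound added 8 min after agonist. Fluorescence followed for 20 min on FLIPR; max-minus-min change gave % inhibition, IC50 by logistic fit.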
In the case of `COc1cn(Cc2cc(F)cc(F)c2)c(Nc2cc(C)c(F)cc2C)nc1=O` [Compound I-0437], the IC50 worked out at 8 nM.

Consider `COc1cn(Cc2cccc(C(F)(F)F)c2)c(Nc2cccc(Cl)c2C)nc1=O` [Compound I-0295], for which the IC50 is 170 nM.

As for `CCc1cc2c(cc1Nc1nc(=O)c(F)cn1Cc1ccc(F)cc1)CCC2` [Compound I-0186], the IC50 is 2 nM.

Turning to `COc1ccc(Nc2nc(=O)c(F)cn2Cc2ccc(F)c(Cl)c2)c(C)n1` [Compound I-1059], the IC50 amounted to 11 nM.

As for `COc1cn(Cc2cc(F)c(F)cc2F)c(Nc2cccc(Cl)c2C)nc1=O` [Compound I-0347], the IC50 came out at 20 nM.

For the molecule `COc1cn(Cc2cc(F)cc(F)c2)c(Nc2cc3[nH]ncc3cc2C)nc1=O` [Compound I-0597], the IC50 was 20 nM.

As for `COc1cn(Cc2ccc(F)cc2)c(Nc2cc3c(cc2C)OCCO3)nc1=O` [Compound I-0289], the IC50 was found to be 27 nM.

Take `COc1ccc(C)c(Oc2cc(=O)c(OC)cn2Cc2ccc(F)c(Cl)c2)c1` [Compound I-0961]: the IC50 is 410 nM.

As to `Cc1nc2cc(C)c(Nc3nc(=O)c(F)cn3Cc3ccccc3)cc2s1` [Compound I-0788], the IC50 is 12 nM.

In the case of `COc1cn(Cc2ccccc2C)c(Nc2cccc(C(F)(F)F)c2Cl)nc1=O` [Compound I-0014], the IC50 is 250 nM.

Still in this assay, the particulars now being: 1321N1 cells stably expressing human P2X7 receptor; BzATP stimulation, Yo-Pro uptake; read-out: IC50 (antagonistic activity for the human P2X7 receptor), class symbol.
As for `COc1cn(Cc2cccc(Cl)c2)c(Nc2cc(OCC(F)(F)F)ccc2C)nc1=O` [Compound I-0494], the IC50 lay in the range of 10 to 100 nM.

Take `CCc1ccccc1Nc1nc(=O)c(OC)cn1Cc1cc(F)cc(Cl)c1` [Compound I-0435]: the IC50 lay within 10 to 100 nM.

On to `Cc1c(Cl)cccc1Nc1nc(=O)c(CC(=O)N2CCOCC2)cn1Cc1ccccc1` [Compound I-0339], for which the IC50 was 100 to 500 nM.

On to `COc1cn(Cc2cc(F)c(F)c(F)c2)c(Nc2ccc(C)cc2C)nc1=O` [Compound I-0570], for which the IC50 is under 10 nM.

For the molecule `COc1cn(Cc2ccc(F)c(F)c2)c(Nc2ccc(OC(F)F)cc2C)nc1=O` [Compound I-0516], the 50% inhibitory concentration (IC50) lay within 10 to 100 nM.

Consider `COc1cn(Cc2ccc(F)c(Cl)c2)c(Nc2cccc(OC(C)C)c2C)nc1=O` [Compound I-0515], for which the IC50 was 10 to 100 nM.

Take `COc1cn(Cc2ccccc2)c(Nc2cc(-c3nc4ncccc4o3)ccc2C)nc1=O` [Compound I-0416]: the IC50 fell in the range of 10 to 100 nM.

Turning to `Cc1c(Cl)cccc1Nc1nc(=O)c(Cl)cn1Cc1ccc(F)c(F)c1` [Compound I-0472], the IC50 is under 10 nM.

As for `COc1cn(Cc2cc(C)cc(F)c2)c(Nc2cccc(Cl)c2C)nc1=O` [Compound I-0478], the IC50 is under 10 nM.

On to `COc1cn(Cc2ccccc2)c(Nc2cccc(C(F)(F)F)c2C)nc1=O` [Compound I-0085], for which the IC50 fell in the range of 10 to 100 nM.

As for `CCc1ccc(Cl)cc1Nc1nc(=O)c(OC)cn1Cc1ccc(F)cc1` [Compound I-0388], the IC50 lay in the range of 10 to 100 nM.

Consider `COc1cn(Cc2cc(F)cc(Cl)c2)c(Nc2cc(C)c(OC(F)F)cc2C)nc1=O` [Compound I-0529], for which the IC50 lay in the range of 10 to 100 nM.

Take `COc1cn(Cc2ccccc2)c(Nc2ccc(OC(F)F)cc2C)nc1=O` [Compound I-0364]: the IC50 lay in the range of 100 to 500 nM.

On to `Cc1c(Cl)cccc1NC(=O)Cc1cn(Cc2ccccc2)c(Nc2cccc(Cl)c2C)nc1=O` [Compound I-0238], for which the IC50 is 100 to 500 nM.

On to `CCNC(=O)c1cn(Cc2ccccc2)c(Nc2cccc(Cl)c2C)nc1=O` [Compound I-0078], for which the IC50 is 100 to 500 nM.

Regarding `CCOc1cc(C)c(Nc2nc(=O)c(OC)cn2Cc2cccc(Cl)c2)cc1C` [Compound I-0259], the IC50 was under 10 nM.

Regarding `COc1cn(Cc2ccc(F)c(F)c2)c(Nc2cccc3[nH]c(C)cc23)nc1=O` [Compound I-0488], the IC50 was 10 to 100 nM.

For `COc1cccc(Nc2nc(=O)c(OC)cn2Cc2ccccc2)c1Cl` [Compound I-0115], the IC50 lay in the range of 10 to 100 nM.

Regarding `CCc1cc2c(cc1Nc1nc(=O)c(OC)cn1Cc1cccc(F)c1)CCC2` [Compound I-0179], the IC50 was under 10 nM.

For `COc1cn(Cc2ccc(F)c(F)c2)c(Nc2cc(C)c(OC(F)F)cc2C)nc1=O` [Compound I-0302], the IC50 was under 10 nM.

As to `CCc1cc(F)ccc1Nc1nc(=O)c(OC)cn1Cc1ccccc1` [Compound I-0400], the IC50 is 100 to 500 nM.

The same assay, now with this note: antagonistic activity for the human P2X7 receptor; read-out: IC50.
For `COc1cn(Cc2ccccc2)c(Nc2cc(-c3ccccc3)ccc2C)nc1=O` [Compound I-0827], the IC50 was 10 to 100 nM.

As to `COc1cn(Cc2cc(F)cc(F)c2)c(Nc2cc(Oc3ccccn3)ccc2C)nc1=O` [Compound I-0897], the IC50 is under 10 nM.

Regarding `CCc1cc(F)c(OC)cc1Nc1nc(=O)c(OC)cn1Cc1ccc(F)c(F)c1` [Compound I-0815], the IC50 was under 10 nM.

On to `COc1cn(Cc2cc(F)c(F)c(F)c2)c(Nc2cc(C)c(OC(F)(F)F)cc2C)nc1=O` [Compound I-0925], for which the IC50 lay within 10 to 100 nM.

`COc1ccc(Nc2nc(=O)cnn2Cc2cc(F)cc(F)c2)c(C)c1` [Compound I-1271]: the IC50 was under 10 nM.

Regarding `Cc1c(F)cccc1Nc1nc(=O)c(F)cn1Cc1ccc(F)c(Cl)c1` [Compound I-1213], the IC50 was under 10 nM.

Turning to `COc1ccc(Nc2nc(=O)c(F)cn2Cc2cc(F)c(F)c(F)c2)c(C)n1` [Compound I-1036], the IC50 was 10 to 100 nM.

Consider `COc1ccc(C)cc1Nc1nc(=O)c(OC)cn1Cc1cc(F)c(F)c(F)c1` [Compound I-0936], for which the IC50 was 10 to 100 nM.

In the case of `Cc1cc2[nH]ncc2cc1Nc1nc(=O)c(F)cn1Cc1cc(F)c(F)c(F)c1` [Compound I-1094], the 50% inhibitory concentration (IC50) was under 10 nM.

For `CCOc1ccc(C)c(Nc2nc(=O)c(OC)cn2Cc2cc(F)c(F)c(F)c2)c1` [Compound I-0862], the IC50 was under 10 nM.

Regarding `Cc1nc2cc(Cl)c(Nc3nc(=O)c(F)cn3Cc3ccc(F)c(Cl)c3)cc2o1` [Compound I-1077], the IC50 is under 10 nM.

Take `Cc1cc2[nH]ccc2cc1Nc1nc(=O)c(F)cn1Cc1cc(F)cc(F)c1` [Compound I-1044]: the IC50 was under 10 nM.

For the molecule `COc1cccc(Nc2nc(=O)c(OC)cn2Cc2ccc(F)c(Cl)c2)c1Cl` [Compound I-0683], the IC50 was under 10 nM.

For `Cc1ccc(CO)cc1Nc1nc(=O)cnn1Cc1cc(F)c(F)c(F)c1` [Compound I-1255], the IC50 is under 10 nM.

As to `Cc1ccc(Cl)c(Nc2nc(=O)c(F)cn2Cc2cc(F)c(F)c(F)c2)c1` [Compound I-1195], the IC50 was under 10 nM.

As to `COc1cn(Cc2ccc(F)c(Cl)c2)c(Nc2cc(Cl)c(F)cc2C)nc1=O` [Compound I-0809], the 50% inhibitory concentration (IC50) lay within 10 to 100 nM.

`COc1cn(Cc2ccc(C(F)(F)F)c(F)c2)c(Nc2cccc(Cl)c2C)nc1=O` [Compound I-0634]: the IC50 lay in the range of 100 to 500 nM.

Take `Cc1cc(Nc2nc(=O)c(F)cn2Cc2cc(F)cc(F)c2)c(Cl)cc1F` [Compound I-1224]: the IC50 was under 10 nM.

With `Cc1ccc(-c2ncco2)cc1Nc1nc(=O)c(Cl)cn1Cc1ccc(F)c(Cl)c1` [Compound I-0852], the IC50 was under 10 nM.

On to `Cn1ccc2c(Nc3nc(=O)c(F)cn3Cc3ccc(F)c(F)c3)cccc21` [Compound I-1020], for which the IC50 was under 10 nM.

With `Cc1c(Nc2nc(=O)ccn2Cc2cc(F)c(F)c(F)c2)ccc2[nH]ccc12` [Compound I-1169], the IC50 was under 10 nM.

In the case of `COc1cc(Nc2nc(=O)c(F)cn2Cc2cc(F)c(F)c(F)c2)c(C)nc1OC` [Compound I-1235], the IC50 was under 10 nM.

With `COc1cn(Cc2cc(F)c(F)c(F)c2)c(Nc2cc(OCC(F)(F)F)ccc2C)nc1=O` [Compound I-0932], the IC50 lay within 10 to 100 nM.
